Target: T1, CDK2 (Homo sapiens, UniProt P24941)
T1 construct: endogenous in cells; host or cells: MKN1 cells
Assay: CDK2 degradation in MKN1 cells (AlphaLISA)
Type: cell-based
Set-up: key to CDK2 degradation 14 h: Mean external-Abs DC50 (nM): A (<100 nM); B (≥100-500 nM); C (>500-1000 nM); D (>1000 nM); E (not achieved)
Conditions: 14 h incubation; for DC50: read-out: CDK2 degradation 14 h: Mean external-Abs DC50
Protocol: Degradation of CDK2 in MKN1 cells was measured using AlphaLISA technology (PerkinElmer ALSU-TCDK2-A10K). MKN1 cells were maintained in RPMI1640 medium containing 10% FBS+1× penn/strep. Cells were seeded in 96-well plates (Corning 3599) at a density of 2e4 cells per well in 80 μL of fresh complete growth medium. Cells were incubated overnight at 37° C., 5% CO2. Compounds were then added to the cell assay plates with a final top concentration of 10 μM in a 1:5 dilution series with a total of 11 doses (0.001 nM-10 μM). The final volume per well was 160 μL and the final DMSO concentration was 0.1%. Additionally, wells containing no cells and only complete growth medium were also maintained on the cell assay plates (‘no cell’ wells) and processed along with experimental wells. After 14 hour-incubation at 37° C., 5% CO2, the medium was removed and the cells were washed once with 100 μL of 1×PBS. Following removal of PBS, 40 μL of 1× Lysis Buffer containing 1× protease and phosphatase inhibitors (Roche 4693116001; Roche 4906837001) were added to each well. The cell assay plate was agitated on a plate shaker at 350 rpm for 10 minutes at room temperature. 10 μL of each cell lysate were transferred to a 384-well plate (PerkinElmer 6007290). 10 μL of control lysates (from PerkinElmer ALSU-TCDK2-A10K kit) were added to separate wells to generate a standard curve. Activation Buffer was prepared by diluting 25-fold in combined Reaction Buffer 1 and Reaction Buffer 2. Acceptor Beads were diluted 50-fold in combined Reaction Buffers. 5 μL of Acceptor Mix were added to each well. The plate was sealed with Topseal-Aadhesive film, covered with foil, and incubated in the dark for 1 hour at room temperature. Under subdued light, the Donor Beads were diluted 50-fold in Dilution Buffer. 5 μL of Donor Mix were added to each well under subdued light. The plate was sealed with Topseal-A adhesive film, covered with foil, and incubated in the dark for 1 hour at room temperature. Under subdued light, the plates were analyzed on an EnVision Microplate Reader (PerkinElmer Model 2009-0030). The average signal from ‘no cell’ wells was subtracted from the signal in experimental wells prior to calculating Alpha signal for test compounds and negative control (0.100 DMSO). The data were analyzed using Xlfit (v5.3. 1.3) and the dose-dependent CDK2 degradation data were fit using a four-parameter logistic model to calculate DC50.

Structure (SMILES)	CDK2 degradation 14 h: Average Dmax %	DC50	CDK2 degradation 14 h: Mean external-Abs DC50 (nM)
Cc1cc(S(=O)(=O)NCCOCCOCCOCCOCCCc2ccc3c(c2)n(C)c(=O)n3C2CCC(=O)NC2=O)ccc1Nc1ncc2cc(C(F)F)c(=O)n(C3CCCC3(C)O)c2n1 (centres unmarked) [I-486]	A (A (>75% o))	< 0.1 µM	
Cc1cc(S(=O)(=O)NCCOCCOCCOCCOCCCc2ccc3c(c2)n(C)c(=O)n3C2CCC(=O)NC2=O)ccc1Nc1ncc2c(n1)N(C1CCCC1)C(=O)C21CC1 (centres unmarked) [I-974]	A (A (>75% o))	< 0.1 µM	
Cc1cc(S(=O)(=O)C2CCC(N3CC4(CCN(c5cccc6c5n(C)c(=O)n6C5CCC(=O)NC5=O)CC4)C3)CC2)ccc1Nc1ncc2c(n1)N(C1CCCC1)C(=O)C21CC1 (centres unmarked) [I-39]	B (B (>50% -75%))	< 0.1 µM	
Cc1cc(S(=O)(=O)NC2CCC(N3CCN(CC4CN(c5cccc6c5n(C)c(=O)n6C5CCC(=O)NC5=O)C4)CC3)CC2)ccc1Nc1ncc(C(F)(F)F)c(N2CCCC(C)(O)C2)n1 (centres unmarked) [I-686]	A (A (>75% o))	< 0.1 µM	
Cc1cc(S(=O)(=O)NCCO[C@H]2CC[C@H](CN3CCN(c4ccc5c(c4)n(C)c(=O)n5C4CCC(=O)NC4=O)CC3)CC2)ccc1Nc1ncc2cc(Cl)c(=O)n(C3CCCC3)c2n1 (some centres unmarked) [I-432]	A (A (>75% o))	< 0.1 µM	
Cc1cc(S(=O)(=O)NC(C)COC2CCC(CN3CCN(c4ccc5c(c4F)n(C)c(=O)n5C4CCC(=O)NC4=O)CC3)CC2)ccc1Nc1ncc(C(F)(F)F)c(C2CCC(C)(O)CC2)n1 (racemic) [I-859]		< 0.1 µM	
Cc1cc(S(=O)(=O)N2CCC(N(C)CC3(F)CCN(c4cccc5c4n(C)c(=O)n5C4CCC(=O)NC4=O)CC3)CC2)ccc1Nc1ncc2cc(Cl)c(=O)n(C3CCCC34CC4)c2n1 (centres unmarked) [I-357]	B (B (>50% -75%))		E
Cc1cc(S(=O)(=O)C2CC3(CCN(CC4CCN(c5cnc6c(c5)c(C)cn6C5CCC(=O)NC5=O)CC4)CC3)C2)ccc1Nc1ncc2cc(Cl)c(=O)n(C3CCCC3)c2n1 (centres unmarked) [I-305]	A (A (>75% o))	0.1 to 0.5 µM	
CC1(O)CCCN(c2nc(Nc3ccc(S(=O)(=O)N4CCN(CC5CCC(Oc6cccc(C7CCC(=O)NC7=O)c6)CC5)CC4)cc3C(F)F)ncc2C(F)(F)F)C1 (centres unmarked) [I-1043]	D (D (<25%))	> 1 µM	
COc1cc(NC2CCC(=O)NC2=O)ccc1N1CCC(CN2CCC3(CC2)CC(S(=O)(=O)c2ccc(Nc4ncc5cc(Cl)c(=O)n(C6CCCC6)c5n4)c(C)c2)C3)CC1 (centres unmarked) [I-77]	A (A (>75% o))	< 0.1 µM	
Cc1cc(S(=O)(=O)C2CC3(CCN(CCOC4CN(c5ccc6c(c5F)n(C)c(=O)n6C5CCC(=O)NC5=O)C4)CC3)C2)ccc1Nc1ncc(C(F)(F)F)c(N2CCCC(C)(O)C2)n1 (centres unmarked) [I-853]	B (B (>50% -75%))	0.1 to 0.5 µM	
Cc1cc(S(=O)(=O)C2CC3(CCN(CC4CCN(c5cccc6c(N7CCC(=O)NC7=O)cncc56)CC4)CC3)C2)ccc1Nc1ncc2cc(Cl)c(=O)n(C3CCCC3)c2n1 [I-82]	A (A (>75% o))	< 0.1 µM	
Cc1cc(S(=O)(=O)C2CC3(CCN(C(=O)COC4CN(c5ccc6c(c5F)n(C)c(=O)n6C5CCC(=O)NC5=O)C4)CC3)C2)ccc1Nc1ncc2ccc(=O)n(C3CCCC3)c2n1 (centres unmarked) [I-259]	D (D (<25%))	> 1 µM	
Cc1cc(S(=O)(=O)NC2CC3(C2)CN(CC2CN(c4ccc(C5CCC(=O)NC5=O)c(Cl)c4)C2)C3)ccc1Nc1ncc(C(F)(F)F)c(N2CCCC(C)(O)C2)n1 (centres unmarked) [I-928]	A (A (>75% o))	< 0.1 µM	

Results, then the compound that gave them:

CDK2 degradation 14 h: Average Dmax %	DC50	CDK2 degradation 14 h: Mean external-Abs DC50 (nM)	Structure (SMILES)
A (A (>75% o))	0.1 to 0.5 µM		Cc1cc(S(=O)(=O)C2CC3(CCN(CC4(F)CCN(c5cccc6c5n(C)c(=O)n6C5CCC(=O)NC5=O)CC4)CC3)C2)ccc1Nc1ncc2cc(Cl)c(=O)n(C3CCCC3)c2n1 (centres unmarked) [I-45]
A (A (>75% o))			[2H]C([2H])([2H])c1cc(S(=O)(=O)NC2CCC(CN3CCN(c4ccc(C5CCC(=O)NC5=O)c(F)c4)CC3)CC2)ccc1Nc1ncc(C(F)(F)F)c(N2CCCC(C)(O)C2)n1 (centres unmarked) [I-1072]
B (B (>50% -75%))	< 0.1 µM		Cc1cc(S(=O)(=O)NC2CC(N3CCN(CC4CCN(c5ccc(NC6CCC(=O)NC6=O)cc5C)CC4)CC3)C2)ccc1Nc1ncc(C(F)(F)F)c(N2CCCC(C)(O)C2)n1 (centres unmarked) [I-712]
A (A (>75% o))	< 0.1 µM		Cc1cc(S(=O)(=O)C2CC3(CCN(CC4CCN(c5ccc6c(N7CCC(=O)NC7=O)nn(C)c6c5F)CC4)CC3)C2)ccc1Nc1ncc2cc(Cl)c(=O)n(C3CCCC3)c2n1 [I-325]
A (A (>75% o))	< 0.1 µM		Cc1cc(S(=O)(=O)NC2CCC(CN3CCN(c4ccc(C5CCC(=O)NC5=O)c(Cl)c4)CC3)CC2)ncc1Nc1ncc(C(F)(F)F)c(N2CCCC(C)(O)C2)n1 (centres unmarked) [I-1047]
A (A (>75% o))	< 0.1 µM		Cc1cc(S(=O)(=O)N2CCC(CN(C)C3CCN(c4cccc5c4n(C)c(=O)n5C4CCC(=O)NC4=O)CC3)CC2)ccc1Nc1ncc2c(n1)N(C1CCCC1)C(=O)C21CC1 (centres unmarked) [I-536]
C (C (>25% -50%))		E	Cc1cc(S(=O)(=O)NCCOCCOCCOCCOCCCc2ccc3c(c2)n(C)c(=O)n3C2CCC(=O)NC2=O)ccc1Nc1ncc2c(C)cc(=O)n(C3CCCC3)c2n1 (centres unmarked) [I-467]
A (A (>75% o))	< 0.1 µM		Cc1cc(S(=O)(=O)C2CC3(CCN(CC4CCN(c5ccc6c(c5F)n(C)c(=O)n6C5CCC(=O)NC5=O)CC4)CC3)C2)ccc1Nc1ncc2c(n1)N(C1CCCC1)C(=O)N(C)C2 (centres unmarked) [I-125]
B (B (>50% -75%))	< 0.1 µM		Cc1cc(S(=O)(=O)NCCOCCOCCCc2ccc3c(c2)n(C)c(=O)n3C2CCC(=O)NC2=O)ccc1Nc1ncc2c(n1)N(C1CCCC1)C(=O)C21CC1 (centres unmarked) [I-972]
A (A (>75% o))	< 0.1 µM		CC1CN(CC2CCN(c3ccc(C4CCC(=O)NC4=O)c(F)c3)CC2)CCC1NS(=O)(=O)c1ccc(Nc2ncc(C(F)(F)F)c(N3CCCC(C)(O)C3)n2)c(F)c1 (centres unmarked) [I-1062]
A (A (>75% o))	< 0.1 µM		Cc1cc(S(=O)(=O)C2CC3(CCN(CC4CCN(c5cccc6c5n(C)c(=O)n6C5CCC(=O)NC5=O)CC4)CC3)C2)ccc1Nc1ncc2cc(Cl)c(=O)n(C3CCCC34CC4)c2n1 (centres unmarked) [I-44]
C (C (>25% -50%))	> 1 µM		Cc1cc(S(=O)(=O)NCCCCCC2CCN(c3ccc(N4CCC(=O)NC4=O)cc3)CC2)ccc1Nc1ncc2cc(Cl)c(=O)n(C3CCCC3)c2n1 [I-410]
A (A (>75% o))	< 0.1 µM		COc1ccc2c(c1N1CCC(CN3CCC4(CC3)CC(S(=O)(=O)c3ccc(Nc5ncc6cc(Cl)c(=O)n(C7CCCC7)c6n5)c(C)c3)C4)CC1)n(C)c(=O)n2C1CCC(=O)NC1=O (centres unmarked) [I-88]
C (C (>25% -50%))		E	Cc1cc(S(=O)(=O)N2CC3(CC(OCCN4CCC(c5ccc6c(c5)n(C)c(=O)n6C5CCC(=O)NC5=O)CC4)C3)C2)ccc1Nc1ncc2ccc(=O)n(C3CCCC3)c2n1 (centres unmarked) [I-463]
A (A (>75% o))	< 0.1 µM		COc1ccc2c(c1N1CCC(N(C)CC3CCN(S(=O)(=O)c4ccc(Nc5ncc6cc(Cl)c(=O)n(C(C)C)c6n5)c(C)c4)CC3)CC1)n(C)c(=O)n2C1CCC(=O)NC1=O (centres unmarked) [I-379]

Source: patent US20240173419A1, “CDK2 DEGRADERS AND USES THEREOF” (Kymera Therapeutics, Inc., priority 2022, published 2024)
